Measurements as given in publication PMC3979416 (The Journal of Biological Chemistry, 2014).
Where two headings read alike, the source gives them in different places.

How the values were obtained:
BRD4 BD1 N140A [1] = conditions: TSA, 100 μM JQ1, pH 7.5, mean ± S.D.
Description: (§1) In a typical TSA, 0.4 μg of BRD4 BD1 protein were mixed with 5× Sypro Orange (Molecular Probe) and adjusted to a final volume of 5 μl with 100 mM HEPES buffer, pH 7.5 (Applichem), and 150 mM NaCl (Sigma). […] To protect samples from evaporation, they were overlaid with 1 μl of silicone oil DC200 (Sigma). Melting curves were recorded using a ThermoFluor system (Johnson and Johnson Pharmaceutical Research and Development) after heating the samples from 25 up to 95 °C while measuring the fluorescence intensity of the dye with the excitation and emission filters set to 465 and 590 nm, respectively. For data analysis, melting curves (fluorescence intensity changes at increasing temperatures) were fitted using a first derivative method ([51]) to determine the melting point Tm and the unfolding enthalpy ΔHu using the evaluation software provided by the manufacturer of the instrument. […] The heat capacity of protein unfolding (ΔCpu) was assumed to be independent of the temperature and estimated from the size of the protein using the equation ([52]), ΔCpu = −119 + 0.20(−907 + 93(#residues)). […] ([53]).
(§2) Standard free energy of binding (ΔG°) and entropy (ΔS°) were calculated with the equations ΔG° = −RTln(1/KD°) and −TΔS° = ΔG° × ΔH°b. To facilitate comparisons dΔG° was also calculated: dΔG° = ΔG° (mt) − ΔG° (WT).

BRD4 BD1 W81A [2] = biological target: T1, BRD4 BD1 W81A (Homo sapiens, UniProt O60885, W81A); conditions: TSA
Description: as §1, §2

BRD4 BD1 L94A [3] = biological target: T2, BRD4 BD1 L94A (Homo sapiens, UniProt O60885, L94A); conditions: TR-FRET competition
Description: as §2
(§3) The experiments were performed in 384-well black small volume microtiter plates (Greiner) in a buffer composed of 50 mM Hepes, pH 7.5 (Applichem), 50 mM NaCl (Sigma), 400 mM KF (Sigma), 0.5 mM CHAPS (Sigma), and 0.05% BSA (Sigma) in a final volume of 5–10 μl (n = 4). BRD4 (100 nM) protein domains were mixed with 200 nM concentrations of the biotin-labeled histone peptides and incubated for 30 min at room temperature. The protein-peptide complexes at equilibrium were then detected with 5 nM Eu^3+ cryptate-conjugated streptavidin (CisBio) and 10 nM anti-His6-XL665 (Cisbio). To analyze the binding of mutated histone peptides at different ionic strengths, streptavidin Eu^3+ chelate (W1024, PerkinElmer Life Sciences) was used instead of cryptate as fluorescence donor, and KF was replaced by NaCl at concentrations of 20, 100, and 500 mM. After 3 h of further incubation at 4 °C, the plates were measured in a PheraStar reader (BMG Labtech) using the homogeneous time-resolved fluorescence module (excitation, 337 nm with 10 flashes; emission, 620 and 665 nm). […]

BRD4 BD1 Y97F [4] = conditions: read-out: EC50 (protein stabilization)
Description: (§4) For the cellular stabilization assays, the codon-optimized sequence of the wild-type and mutant versions of BRD4 BD1 (amino acids 44–166) flanked by an N-terminal His6 tag and a C-terminal FLAG tag and by 5′ and 3′ site-specific attachment sites for recombination using the Gateway technology (Invitrogen) were prepared by total DNA synthesis (GeneArt). The synthesized DNA fragments were cloned into the pTT5 ([49]) destination vector using a lambda site-specific recombination system (LR-recombination, Gateway Technology, Invitrogen). Plasmid DNA was prepared using the QIAprep Spin Miniprep kit (Qiagen).
(§5) HEK293–6E cells (Yves Durocher, National Research Council Canada) were grown in suspension with gentle shaking in FreeStyle F17 medium (Invitrogen) containing 4 mM L-alanyl-L-glutamine (BioChrom AG) and 0.1% Pluronic (Invitrogen). For transfection with DNA, 10 ml of cell suspension at a density of 10^6 cells/ml were prepared. […]
(§6) Plates were incubated at room temperature in the dark for 2 h. Time-resolved fluorescence was measured with a PHERAstar FS microplate reader (BMG Labtech) using the homogeneous time-resolved fluorescence module (excitation 337 nm, emission 1: 620 nm; emission 2: 665 nm). […]

BRD4 BD1 D144A [5] = biological target: T3, BRD4 BD1 D144A (Homo sapiens, UniProt O60885, D144A); conditions: TR-FRET competition
Description: as §2, §3

BRD4 BD1 N140A [6] = conditions: read-out: EC50 (protein stabilization)
Description: as §4, §5, §6

BRD4 BD1 Y139F [7] = biological target: T4, BRD4 BD1 Y139F (Homo sapiens, UniProt O60885, Y139F)
BRD4 BD1 D144A [8] = biological target: T3, BRD4 BD1 D144A
BRD4 BD1 P82A [9] = biological target: T5, BRD4 BD1 P82A (Homo sapiens, UniProt O60885, P82A); conditions: TSA
Description: as §1, §2

BRD4 BD1 mutants [10] = test system: BRD4 BD1 mutants
Description: The TR-FRET binding assay used to measure the interaction of BRD4 with acetylated peptides was a modified version of a previously described protocol ([18]). The experiments were performed in 384-well black small volume microtiter plates (Greiner) in a buffer composed of 50 mM Hepes, pH 7.5 (Applichem), 50 mM NaCl (Sigma), 400 mM KF (Sigma), 0.5 mM CHAPS (Sigma), and 0.05% BSA (Sigma) in a final volume of 5–10 μl (n = 4). BRD4 (100 nM) protein domains were mixed with 200 nM concentrations of the biotin-labeled histone peptides and incubated for 30 min at room temperature. The protein-peptide complexes at equilibrium were then detected with 5 nM Eu^3+ cryptate-conjugated streptavidin (CisBio) and 10 nM anti-His6-XL665 (Cisbio). To analyze the binding of mutated histone peptides at different ionic strengths, streptavidin Eu^3+ chelate (W1024, PerkinElmer Life Sciences) was used instead of cryptate as fluorescence donor, and KF was replaced by NaCl at concentrations of 20, 100, and 500 mM.
The plates were then processed as described above. IC50 values were calculated by plotting the log [competitor/inhibitor] versus mean normalized response data from at least two independent experiments measured in triplicate and fitting it to a four-parameter equation with variable Hill slope, Y = bottom + (top-bottom)/(1 + 10^(logIC50 − ^X^) × Hill slope)), using the GraphPad Prism software. […]

BRD4 BD1 L94A [11] = biological target: T2, BRD4 BD1 L94A; conditions: TSA
Description: as §1, §2

BRD4 wild type = assay: FRAP of GFP-BRD4 wild type with JQ1; assay type: cell-based, human; conditions: U2OS cells, 1 μM JQ1 1 h before imaging
Description: For the photobleaching experiments we used full-length human BRD4 cDNA (RefSeq NM_058243.2) cloned into the pcDNA6.2/N-EmGFP-DEST plasmid (Invitrogen) by the Gateway technology (Invitrogen) to create a chimeric green fluorescent protein (GFP)/wild-type BRD4 expression construct. […] The synthesized DNA fragments were cloned into the pTT5 ([49]) destination vector using a lambda site-specific recombination system (LR-recombination, Gateway Technology, Invitrogen). Plasmid DNA was prepared using the QIAprep Spin Miniprep kit (Qiagen).
FRAP studies were performed using a protocol modified from previous work ([17], [55]). In brief, U2OS cells were reverse-transfected (Lipofectamine 2000, Invitrogen) with mammalian expression constructs encoding chimeric GFP-BRD4 (wild type or mutants). […] The average intensity at each imaging time point was measured for three regions of interest: the bleached region (It), the total cell nucleus (Tt), and a random region outside of the cell for background subtraction (BG). […] The base line was normalized to zero, and the prebleach was normalized to 1. Normalized data were imported into GraphPad Prism 6.0, and half-times of recovery (t½) were calculated from individual single exponential curve fits for each cell and presented as the mean for each group. p values were calculated using an unpaired t test.

BRD4 BD1 Y139F [12] = biological target: T4, BRD4 BD1 Y139F; conditions: TR-FRET competition
Description: as §2, §3

BRD4 BD1 D145A [13] = biological target: T6, BRD4 BD1 D145A (Homo sapiens, UniProt O60885, D145A); conditions: TR-FRET competition
Description: as §2, §3

[14] = test system: Patient-derived NMC tumors; conditions: xenograft, ref [17], [26]; cited from earlier work
BRD4 BD1 W81A [15] = biological target: T1, BRD4 BD1 W81A
BRD4 BD1 mutants [16] = assay type: cell-based, human
Description: as §4, §5, §6

BRD4 BD1 Y97F [17] = conditions: TSA, 100 μM JQ1, pH 7.5, mean ± S.D.
Description: as §1, §2

BRD4 BD1 D145A [18] = biological target: T6, BRD4 BD1 D145A
BRD4 BD1 wild type [19] = conditions: pH 7.5
BRD4 BD1 wild type [20] = conditions: WT, TR-FRET competition, 50 nM protein, 200 nM biotinylated H4 peptide; IC50 expressed as KD; mean ± S.D.
Description: as §2, §3

BRD4 BD1 mutants [21] = test system: BRD4 BD1 mutants; remark: listed apart in the source
Description: After 30 min of incubation at room temperature, the plates were measured in a Tecan M1000 plate reader using its FP module and excitation/emission wavelengths of 530 and 570 nm, respectively. For KD determinations the background-corrected polarization values were plotted against the concentrations of BRD4, and the data were fitted to a one-site binding equation: Y = Bmax × X/(KD + X), where Y is the specific binding, and Bmax is the maximal binding, using the GraphPad Prism software. Free energy of binding ΔG was calculated as described above.

BRD4 BD1 P82A [22] = biological target: T5, BRD4 BD1 P82A
BRD4 BD1 mutants [23] = assay: Thermal shift assay with JQ1, mutants as a group; assay type: binding, human; conditions: 100 μM JQ1
Description: In a typical TSA, 0.4 μg of BRD4 BD1 protein were mixed with 5× Sypro Orange (Molecular Probe) and adjusted to a final volume of 5 μl with 100 mM HEPES buffer, pH 7.5 (Applichem), and 150 mM NaCl (Sigma). […] To protect samples from evaporation, they were overlaid with 1 μl of silicone oil DC200 (Sigma). […] For data analysis, melting curves (fluorescence intensity changes at increasing temperatures) were fitted using a first derivative method ([51]) to determine the melting point Tm and the unfolding enthalpy ΔHu using the evaluation software provided by the manufacturer of the instrument. A series of thermal melting curves was collected in the presence of varying inhibitor concentrations.
as §2

BRD4 BD1 P82A [24] = biological target: T5, BRD4 BD1 P82A; conditions: TR-FRET competition
Description: as §2, §3

BRD4 BD1 wild type [25] = conditions: WT, TSA
Description: as §1, §2

BRD4 BD1 wild type [26] = test system: BRD4 BD1 wild type
Description: as §4, §5, §6

BRD4 BD1 D144A [27] = biological target: T3, BRD4 BD1 D144A; conditions: TSA
Description: as §1, §2

BRD4 BD1 M149A [28] = biological target: T7, BRD4 BD1 M149A (Homo sapiens, UniProt O60885, M149A)
BRD4 BD1 I146A [29] = biological target: T8, BRD4 BD1 I146A (Homo sapiens, UniProt O60885, I146A); conditions: TSA
Description: as §1, §2

BRD4 BD1 I146A [30] = biological target: T8, BRD4 BD1 I146A; conditions: TR-FRET competition
Description: as §2, §3

BRD4 BD1 M149A [31] = biological target: T7, BRD4 BD1 M149A; conditions: TSA
Description: as §1, §2

BRD4 BD1 D145A [32] = biological target: T6, BRD4 BD1 D145A; conditions: TSA
Description: as §1, §2

BRD4 BD1 L94A [33] = biological target: T2, BRD4 BD1 L94A
BRD4 BD1 Y139F [34] = biological target: T4, BRD4 BD1 Y139F; conditions: TSA
Description: as §1, §2

BRD4 BD1 I146A [35] = biological target: T8, BRD4 BD1 I146A
BRD4 = assay: TR-FRET displacement of the H4 peptide by the JQ1-TAMRA probe; assay type: binding, human; conditions: data not shown
[36] = 100 μM JQ1, pH 7.5, mean ± S.D.

SMILES: Cc1sc2c(c1C)C(c1ccc(Cl)cc1)=N[C@@H](CC(=O)OC(C)(C)C)c1nnc(C)n1-2 [JQ1, tert-butyl[(6S)-4-(4-chlorophenyl)-2,3,9-trimethyl-6H-thieno[3,2-f][1,2,4]triazolo[4,3-a][1,4]diazepin-6-yl]acetate]
- ΔTm (BRD4 BD1 N140A [1]): 3.3 ± 0.4 °C
- ΔG° (BRD4 BD1 W81A [2]): -10.7 kcal/mol
- −TΔS° (BRD4 BD1 W81A [2]): -8.53 kcal/mol
- ΔTm (BRD4 BD1 W81A [2]; [36]): 2.8 ± 0.4 °C
- ΔH°b (BRD4 BD1 W81A [2]; 100 μM JQ1 vs DMSO): -2.2 kcal/mol
- ΔG (BRD4 BD1 L94A [3]): -9.94 kcal/mol
- EC50 (BRD4 BD1 Y97F [4]): > 10000 nM
- ΔG (BRD4 BD1 D144A [5]): -9.94 kcal/mol
- EC50 (BRD4 BD1 N140A [6]): 8400 nM
- JQ1 binding compared with wild type (in words) (BRD4 BD1 Y139F [7]): not significantly different compared with wild-type BRD4 BD1
- ΔG (BRD4 BD1 Y139F [7]): -10.8 kcal/mol
- ΔG (BRD4 BD1 D144A [8]): -9.89 kcal/mol
- ΔG° (BRD4 BD1 P82A [9]): -11.5 kcal/mol
- −TΔS° (BRD4 BD1 P82A [9]): -7.36 kcal/mol
- ΔTm (BRD4 BD1 P82A [9]; [36]): 5.1 ± 0.2 °C
- ΔH°b (BRD4 BD1 P82A [9]; 100 μM JQ1 vs DMSO): -4.16 kcal/mol
- inhibition of BRD4-H4 interaction vs wild type (in words) (BRD4 BD1 mutants [10]; Leu-94 and Asp-145 mutated to alanine): better inhibitor
- inhibition of BRD4-H4 interaction vs wild type (in words) (BRD4 BD1 mutants [10]; P82A): slightly decreased
- ΔG° (BRD4 BD1 L94A [11]): -11.8 kcal/mol
- −TΔS° (BRD4 BD1 L94A [11]): -7.6 kcal/mol
- ΔTm (BRD4 BD1 L94A [11]; [36]): 6.9 ± 0.4 °C
- ΔH°b (BRD4 BD1 L94A [11]; 100 μM JQ1 vs DMSO): -4.23 kcal/mol
- half-fluorescence recovery (in words) (BRD4 wild type): enhanced half-fluorescence recovery
- ΔG (BRD4 BD1 Y139F [12]): -9.75 kcal/mol
- increase of inhibitory activity vs wild type (BRD4 BD1 D145A [13]): 6 fold
- ΔG (BRD4 BD1 D145A [13]): -10.5 kcal/mol
- tumor inhibition (in words) [14]: inhibited
- ΔG (BRD4 BD1 W81A [15]): -8.29 kcal/mol
- EC50 increase vs wild type (BRD4 BD1 mutants [16]): from 7-fold to >100-fold
- ΔTm (BRD4 BD1 Y97F [17]): 3.1 ± 0.6 °C
- JQ1 binding compared with wild type (in words) (BRD4 BD1 D145A [18]): not significantly different compared with wild-type BRD4 BD1
- ΔG (BRD4 BD1 D145A [18]): -10.6 kcal/mol
- Kd (BRD4 BD1 wild type [19]): 14.5 ± 3.3 nM
- Kd (BRD4 BD1 wild type [20]): 106 ± 13.9 nM
- effect of mutation on JQ1 binding (in words) (BRD4 BD1 mutants [21]): strongest effects
- ΔG (BRD4 BD1 P82A [22]): -9.06 kcal/mol
- stabilization by JQ1 (in words) (BRD4 BD1 mutants [23]; P82A, L94A, and I146A): moderate stabilization profile
- stabilization by JQ1 (in words) (BRD4 BD1 mutants [23]; W81A, Y97F, N140A, and M149A): least stabilized by JQ1
- stabilization by JQ1 (in words) (BRD4 BD1 mutants [23]; Y139F, D144A, and D145A): as strongly as wild-type BD1
- ΔG (BRD4 BD1 P82A [24]): -9.13 kcal/mol
- ΔTm (BRD4 BD1 wild type [25]; 100 μM JQ1, 100 mM HEPES pH 7.5, 150 mM NaCl, mean ± S.D.): 9.6 ± 0.6 °C
- Kd (BRD4 BD1 wild type [25]; extrapolated standard KD): 1 nM
- protein levels (in words) (BRD4 BD1 wild type [26]): dose-dependent and saturable increase of the TR-FRET signals
- EC50 (BRD4 BD1 wild type [26]; read-out: EC50 (protein stabilization)): 100 nM
- ΔG° (BRD4 BD1 D144A [27]): -12.3 kcal/mol
- −TΔS° (BRD4 BD1 D144A [27]): -9.89 kcal/mol
- ΔTm (BRD4 BD1 D144A [27]; [36]): 9.5 ± 0.6 °C
- ΔH°b (BRD4 BD1 D144A [27]; 100 μM JQ1 vs DMSO): -2.37 kcal/mol
- ΔG (BRD4 BD1 M149A [28]): -8.96 kcal/mol
- ΔG° (BRD4 BD1 I146A [29]): -11.8 kcal/mol
- −TΔS° (BRD4 BD1 I146A [29]): -9.66 kcal/mol
- ΔTm (BRD4 BD1 I146A [29]; [36]): 6.1 ± 0.3 °C
- ΔH°b (BRD4 BD1 I146A [29]; 100 μM JQ1 vs DMSO): -2.1 kcal/mol
- ΔG (BRD4 BD1 I146A [30]): -9.39 kcal/mol
- ΔG° (BRD4 BD1 M149A [31]): -10.9 kcal/mol
- −TΔS° (BRD4 BD1 M149A [31]): -10.8 kcal/mol
- ΔTm (BRD4 BD1 M149A [31]; [36]): 3.2 ± 0.3 °C
- ΔH°b (BRD4 BD1 M149A [31]; 100 μM JQ1 vs DMSO): -0.12 kcal/mol
- ΔG° (BRD4 BD1 D145A [32]): -12.2 kcal/mol
- −TΔS° (BRD4 BD1 D145A [32]): -10.7 kcal/mol
- ΔTm (BRD4 BD1 D145A [32]; [36]): 9.2 ± 0.6 °C
- ΔH°b (BRD4 BD1 D145A [32]; 100 μM JQ1 vs DMSO): -1.55 kcal/mol
- ΔG (BRD4 BD1 L94A [33]): -9.66 kcal/mol
- ΔG° (BRD4 BD1 Y139F [34]): -12.3 kcal/mol
- −TΔS° (BRD4 BD1 Y139F [34]): -7.84 kcal/mol
- ΔTm (BRD4 BD1 Y139F [34]; [36]): 9.8 ± 0.3 °C
- ΔH°b (BRD4 BD1 Y139F [34]; 100 μM JQ1 vs DMSO): -4.47 kcal/mol
- ΔG (BRD4 BD1 I146A [35]): -8.7 kcal/mol

SMILES: Cc1sc2c(c1C)C(c1ccc(Cl)cc1)=N[C@@H](CC(=O)NCCCCCNC(=O)c1ccc(-c3c4ccc(=[N+](C)C)cc-4oc4cc(N(C)C)ccc34)c(C(=O)[O-])c1)c1nnc(C)n1-2 [JQ1-TAMRA, 5-{[5-({[(6S)-4-(4-chlorophenyl)-2,3,9-trimethyl-6H-thieno[3,2-f][1,2,4]triazolo [4,3-a][1,4]diazepin-6-yl]acetyl}amino)pentyl]carbamoyl}-2-[6-(dimethylamino)-3-(dimethyliminio)-3H-xanthen-9-yl]benzoate]
- KD (in words) (BRD4): comparable with that of JQ1
